Here are results for one molecule from US20090326008A1, “NF-kappa B Inhibitor” (priority 2006, published 2009).

Holding throughout (assay type): cell-based, human
Conditions in all cases: IL-1β-stimulated DMSO-treated cells = 100%, ACTB reference

The subject of one test is COX2. The test can be described thus: Relative COX2 mRNA expression in IL-1β-stimulated MKN-45 cells (real-time PCR). Here is the method: (§1) RNA was extracted from the cells used in Example 2 according to the manufacturer's protocol for ABI Prism 6100 Nucleic Acid PrepStation (a nucleic acid isolation system, product of Applied Biosystems). More specifically, after removal of the culture supernatant and washing with 1 mL of PBS, 250 μL of Nucleic Acid Purification Lysis Solution (Part No. 4305895, Applied Biosystems) was added, and then agitated using a shaker for 2 to 3 minutes. The Lysis Solution containing the cell lysate was collected, and the total amount was transferred to the wells of RNA Purification Tray (Part No. 4305673, Applied Biosystems), which had been pre-wet with 40 μL of Nucleic Acid Purification Wash Solution I (Part No. 4305891, Applied Biosystems) beforehand. Aspiration (20% pressure) was performed for 2 minutes to adsorb the sample onto the RNA Purification Tray, followed by sequentially adding and aspirating (20% pressure, 2 min.) 500 μL of Wash Solution I, Nucleic Acid Purification (Part No. 4305891, Applied Biosystems), 400 μL of Wash Solution II, Nucleic Acid Purification (Part No. 4305890, product of Applied Biosystems), 400 μL of the Wash Solution II, and 300 μL of the Wash Solution II in that order. Aspiration (90% pressure) was performed for 5 minutes to remove the water content from the RNA Purification Trays. After addition of 150 μL of Elution Solution, Nucleic Acid Purification (Part No. 4305893, product of Applied Biosystems), aspiration (20% pressure) was performed for 2 minutes, while collecting the outflow. This was used as collected RNA solution.
(§2) Absorbance of the collected RNA solution at 260 nm was measured using a microplate spectrophotometer (“SpectraMax Plus”, product of Molecular Devices) with an analysis software (“SOFTmaxPRO ver.3.1.2”, product of Molecular Devices), and the RNA concentration was determined from the absorbance. Likewise, absorbance at 280 nm was measured and the purity of the RNA was determined using the analysis software.
(§3) cDNA was synthesized according to the manufacturer's protocol for TaqMan® Reverse Transcription Reagents (Part No. N808-0234, product of Applied Biosystems). More specifically, about 0.5 μg of RNA, 2.5 μL of 10×RT buffer, 5.5 μL of MgCl2 solution, 5 μL of dNTP mixture, 1.25 μL of random hexamer (primers), 0.5 μL of RNase inhibitor, and 0.63 μL of MultiScribe Reverse Transcriptase (product of Applied Biosystems) were added to each collected RNA sample in a tube, and DEPC-treated water was added to make a total volume of 25 μL and stirred. A reaction consisting of 25° C. for 10 minutes, 48° C. for 30 minutes, and 95° C. for 5 minutes was performed using a PCR thermal cycler (“TaKaRa PCR Thermal Cycler Dice”, product of Takara Bio Inc.) to prepare a cDNA solution.
(§4) PCR was performed according to the manufacturer's protocol for TaqMan® Gene Expression Assays (product of Applied Biosystems). More specifically, 5 μL of TaqMan® Fast Universal PCR Master Mix (product of Applied Biosystems), 0.5 μL of TaqMan® Gene Expression Assays for the target gene (gene-specific probe and primer sets, product of Applied Biosystems), and 4.5 μL of the above-obtained cDNA solution were added to each sample and stirred. A PCR reaction consisting of heating at 95° C. for 20 seconds, followed by 40 cycles consisting of heating at 95° C. for 3 seconds and annealing and extension at 60° C. for 30 seconds was performed using a real-time PCR device (“Applied Biosystems 7500 Real-Time PCR System”) with SDS v1.4 Software (product of Applied Biosystems). Threshold cycle (Ct) values were calculated using the software.
(§5) The Assay IDs of the TaqMan® Gene Expression Assays for the target genes used are as follows:
(§6) The expression level of each gene was determined according to the following formula using the level of ACTB as a reference standard.
(§7) (Relative mRNA expression level)=2̂−{(Ct value of the target gene)−(Ct value of ACTB)} […]
(In general: In qPCR the cycle at which signal appears reflects the starting amount.)

Another test has as its system IL-8. The test can be described thus: Relative IL-8 mRNA expression in IL-1β-stimulated MKN-45 cells (real-time PCR). Here is the method:
as §1, §2, §3, §4, §5, §6, §7

The test system of another test is TNFα. Briefly: Relative TNFα mRNA expression in IL-1β-stimulated MKN-45 cells (real-time PCR). The method, then: as §1, §2, §3, §4, §5, §6, §7

With `COc1ccc(CC2SC(=S)NC2=O)c2c1N(CCC(C)C)C(=O)CC2` (stereo not drawn) [Test Compound 965], the “COX2 relative mRNA expression level, Mean” value in the test on COX2 is given as 37.6%. Moreover, the “IL-8 relative mRNA expression level, Mean” value in the test on IL-8 is 61.2%. Also, the “TNFa relative mRNA expression level, Mean” value in the test on TNFα is 63.0%.
